# From article PMC9974506 (Proceedings of the National Academy of Sciences of the …, 2023)
# Molecular target: T1, BRTNaC1 (broad-range thermal receptor 1) (Scolopendra mutilans, UniProt A0ABF7PQ77)
# T1 sequence (A0ABF7PQ77 1-431): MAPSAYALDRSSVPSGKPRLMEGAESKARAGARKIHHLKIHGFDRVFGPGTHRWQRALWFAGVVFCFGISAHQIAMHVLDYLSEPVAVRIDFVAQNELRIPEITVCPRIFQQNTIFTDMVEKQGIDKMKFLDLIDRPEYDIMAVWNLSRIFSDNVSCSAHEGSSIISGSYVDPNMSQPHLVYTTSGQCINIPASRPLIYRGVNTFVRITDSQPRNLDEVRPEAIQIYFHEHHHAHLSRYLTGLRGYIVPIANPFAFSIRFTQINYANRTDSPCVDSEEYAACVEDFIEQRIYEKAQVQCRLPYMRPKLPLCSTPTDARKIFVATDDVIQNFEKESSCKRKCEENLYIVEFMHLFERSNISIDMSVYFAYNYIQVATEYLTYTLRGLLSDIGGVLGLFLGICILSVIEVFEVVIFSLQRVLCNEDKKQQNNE
# Test: patch clamp, transfected HEK293 cells, heat-activated current, Hill fit
# Assay type: cell-based
smiles,measurement,value
C[C@]12CC[C@H]3[C@@H](CCC4=CC(=O)CC[C@@]43C)[C@@H]1CC[C@@H]2O [testosterone],IC50,3.8 ± 1.1 µM
